The source made the active and inactive calls.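 The calls were made as follows: active = fitted curve reaching 40% activation at or below the top valid dose tested; inconclusive = flat curve at 30 to 70% activation, or poor fit; inactive = the rest.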
system: SK-MEL-5 TRPM1 promoter luciferase reporter, 24 h; assay: MITF activators via TRPM1 promoter reporter, dose response, SK-MEL-5 cells, luciferase, cherry-pick samples (AID 540258);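 also: potency for activators that raise TRPM1 promoter luciferase signal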

First: Cc1ccc(NC(=O)C(=O)NCc2ccccn2)cc1
Second: CCC(C)c1ccc(NC(=O)Nc2cccnc2)cc1 (stereo unspecified)
The AC40 of the first is 7.4-fold higher: 16.4 µM for the first, 2.21 µM for the second.

Compared with `CCc1ccc(OC(=O)Nc2ccccc2)cc1`, `CCc1ccc(NC(=O)c2cc(-c3cccs3)on2)cc1` is 26-fold higher in AC40: 0.469 µM for the first, 12.3 µM for the second.

`Cc1ccc(Nc2cc(C)nc(-c3ccccc3)n2)cc1` and `Cc1cccc(-c2noc(Cc3ccccc3)n2)c1` are within 1.5-fold of each other in AC40: 2.33 µM for the first, 2.93 µM for the second.

Going from `CC(NC(=O)c1cc(COc2ccccc2)on1)c1nccs1` (stereo unspecified) to `COc1ccc2sc(NCc3ccccc3)nc2c1`, the AC40 rises from 0.721 µM to 1.98 µM (2.7-fold).

`COc1ccc(-n2nc(C(=O)NCC(=O)N3CCN(c4ccccc4)CC3)c3ccccc3c2=O)c(OC)c1` and `COc1ccc(C(=O)Nc2cc3c4c(c2)CC(=O)N4CCC3)c(OC)c1` are within 1.5-fold of each other in AC40: 4.77 µM for the first, 6.24 µM for the second.

First: O=C(NCCc1ccccc1)c1nccc2ccccc12
Second: Oc1[nH]c2ccccc2c1C=Nc1ccccc1
The AC40 of the first is 3.5-fold higher: 19.2 µM for the first, 5.55 µM for the second.

First: CCC(=O)Nc1ccc(-c2ccc(N3CCC(C)CC3)nn2)cc1
Second: Cc1ccc2c(CN3CCC(C)CC3)cc(=O)oc2c1C
The AC40 of the first is 1.8-fold lower: 4.63 µM for the first, 8.33 µM for the second.

Going from `COc1ccc(-c2cc(=NCCC(=O)O)c3cc(C)ccc3o2)cc1` to `COc1cc(O)c2c(=O)cc(-c3ccccc3)oc2c1`, the AC40 rises from 3.33 µM to 14.2 µM (4.3-fold).

`COc1ccc(/C=N/N=C2/SCC(=O)N2Cc2ccccc2)cc1` and `COc1ccc2cc(-c3nc4ccccc4n3C)c(=O)oc2c1` are within 1.5-fold of each other in AC40: 2.67 µM for the first, 1.92 µM for the second.

Compared with `CN(N=O)c1ccc(CC2CCc3ccccc32)cc1` (stereo unspecified), `CSc1ccc(CNc2ccc(Cl)cc2)cc1` is 2.2-fold lower in AC40: 12.6 µM for the first, 5.67 µM for the second.

Compared with `Cc1ccc(NC(=O)c2ccccc2Cl)c(Cl)c1`, `O=C(Nc1ccc2c(c1)CCC2)c1c(F)cccc1Cl` is 2.3-fold lower in AC40: 4.2 µM for the first, 1.84 µM for the second.

Going from `Cc1cccc(OC(=O)c2sc3ncn(C)c(=O)c3c2C)c1` to `COc1cccc2cc(CC(=O)c3ccc(C)cc3C)c(=O)oc12`, the AC40 rises from 6.16 µM to 11.9 µM (1.9-fold).

Compared with `N#Cc1c(-c2ccc(Cl)cc2)ccn2nc(C3CCCCC3)nc12`, `c1ccc2c(c1)NC1(CCCC1)n1c-2nc2ccccc21` is 4.7-fold higher in AC40: 2.4 µM for the first, 11.3 µM for the second.

`Cc1cc(C(=O)Cn2nc(C(=O)O)c3ccccc3c2=O)c(C)n1CC(F)(F)F` and `C/C(Cl)=C/CSc1nn2c(=O)c3ccccc3nc2s1` are within 1.5-fold of each other in AC40: 9.43 µM for the first, 13 µM for the second.

Going from `Cc1ccc(-n2nnc(-c3ccnc4ccccc34)n2)cc1` to `Cc1ccc(OC(=O)c2cccc(S(=O)(=O)N3CCCC3)c2)c(-n2nc3ccccc3n2)c1`, the AC40 falls from 3.49 µM to 1.41 µM (2.5-fold).

First: CCN(CC)CC(=O)Nc1scc2c1c(=O)oc1ccccc12
Second: Nc1ccc2oc(=O)c3ccccc3c2c1
The AC40 of the first is 2-fold higher: 6.27 µM for the first, 3.19 µM for the second.

Compared with `O=C(N/N=C/c1ccsc1)c1ccc2c(c1)OCO2`, `O=C(O)c1cc(-c2ccc(-c3c(-c4ccc5c(c4)OCO5)noc3-c3ccsc3)cc2)nc2ccccc12` is 6.1-fold higher in AC40: 3.33 µM for the first, 20.3 µM for the second.

Going from `COc1ccc(-c2csc(-n3cccn3)n2)cc1` to `COc1cc(OC)cc(-c2cc3cc(F)ccc3cn2)c1`, the AC40 rises from 1.1 µM to 1.71 µM (1.6-fold).

First: Cc1ccc(Nc2ncc3c(n2)CC(C)(C)CC3=O)cc1
Second: Cc1noc(N)c1C(=O)Nc1ccc(C(C)(C)C)cc1
The AC40 of the first is 2.6-fold lower: 0.65 µM for the first, 1.66 µM for the second.

`CCN(CC)c1ccc(-c2nc3cnccc3n2C)cc1` and `CC(=O)c1cnc2nc(SCc3ccccc3)nn2c1C` are within 1.5-fold of each other in AC40: 1.64 µM for the first, 2.29 µM for the second.

Compared with `C=CCN=C1S/C(=C\c2ccc(N(C)C)cc2)C(=O)N1CC=C`, `O=C1c2ccccc2C(=O)N1CCc1c[nH]c2ccccc12` is 9.8-fold lower in AC40: 21.5 µM for the first, 2.19 µM for the second.

Compared with `CCc1ccc(C(=O)NC2CCCCC2)s1`, `COC(=O)Cc1csc(Nc2ccccc2Cl)n1` is 2.1-fold higher in AC40: 2.95 µM for the first, 6.3 µM for the second.

Going from `Cn1c2ccccc2c(=O)c2ccc(-c3ccc4c(c3)OCO4)cc21` to `Nc1ccc(N=Nc2ccccc2)c(N)n1`, the AC40 rises from 0.851 µM to 14.7 µM (17-fold).

Going from `Cc1nc(SCc2ccccc2)nc2c1CCC2` to `c1csc(CSc2nc3ccccc3s2)c1`, the AC40 falls from 2.58 µM to 1.09 µM (2.4-fold).

In the case of `C/C(=N/NC(=O)c1ccncc1)c1ccc(NC(=O)c2ccc(Cl)cc2Cl)cc1`, the AC40 is reported as > 35 µM (inactive).
With `O=C1c2ccccc2NC(c2cccc(Cl)c2)N1N=C1CCCCCC1` (stereo unspecified) the AC40 was > 35 µM (inactive).
In the case of `Cn1c(-c2ncc(F)cc2F)cc2onc(-c3c(F)cccc3Cl)c2c1=O`, the AC40 is reported as > 35 µM (inactive).
